Columns and labels:
AKT1 = molecular target: T1, AKT1 (Homo sapiens, UniProt P31749); assay: Kinobeads competition binding: AKT1; settings: target AKT1
T1 construct: endogenous in cells
From the text: Supplement 41589_2023_1459_MOESM4_ESM.xlsx, sheet "CATDS matrix" | column: AKT1

CDC42BPA = assay: Kinobeads competition binding: CDC42BPA; set-up: species or system human; settings: target CDC42BPA;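 note: selectivity score: engagement of this protein divided by summed engagement of all targets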
CDK6 = molecular target: T2, CDK6 (Homo sapiens, UniProt Q00534); assay: Kinobeads competition binding: CDK6; settings: target CDK6
T2 construct: endogenous in cells

EPHA2 = molecular target: T3, EPHA2 (Homo sapiens, UniProt P29317); assay: Kinobeads competition binding: EPHA2; settings: target EPHA2
T3 construct: endogenous in cells
From the text: Supplement 41589_2023_1459_MOESM4_ESM.xlsx, sheet "CATDS matrix" | column: EPHA2

IGF1R = assay: Kinobeads competition binding: IGF1R; set-up: species or system human; settings: target IGF1R;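 note: selectivity score: engagement of this protein divided by summed engagement of all targets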
IKBKE = molecular target: T4, IKBKE (Homo sapiens, UniProt Q14164); assay: Kinobeads competition binding: IKBKE; settings: target IKBKE
T4 construct: endogenous in cells
T4 sequence (Q14164 1-716): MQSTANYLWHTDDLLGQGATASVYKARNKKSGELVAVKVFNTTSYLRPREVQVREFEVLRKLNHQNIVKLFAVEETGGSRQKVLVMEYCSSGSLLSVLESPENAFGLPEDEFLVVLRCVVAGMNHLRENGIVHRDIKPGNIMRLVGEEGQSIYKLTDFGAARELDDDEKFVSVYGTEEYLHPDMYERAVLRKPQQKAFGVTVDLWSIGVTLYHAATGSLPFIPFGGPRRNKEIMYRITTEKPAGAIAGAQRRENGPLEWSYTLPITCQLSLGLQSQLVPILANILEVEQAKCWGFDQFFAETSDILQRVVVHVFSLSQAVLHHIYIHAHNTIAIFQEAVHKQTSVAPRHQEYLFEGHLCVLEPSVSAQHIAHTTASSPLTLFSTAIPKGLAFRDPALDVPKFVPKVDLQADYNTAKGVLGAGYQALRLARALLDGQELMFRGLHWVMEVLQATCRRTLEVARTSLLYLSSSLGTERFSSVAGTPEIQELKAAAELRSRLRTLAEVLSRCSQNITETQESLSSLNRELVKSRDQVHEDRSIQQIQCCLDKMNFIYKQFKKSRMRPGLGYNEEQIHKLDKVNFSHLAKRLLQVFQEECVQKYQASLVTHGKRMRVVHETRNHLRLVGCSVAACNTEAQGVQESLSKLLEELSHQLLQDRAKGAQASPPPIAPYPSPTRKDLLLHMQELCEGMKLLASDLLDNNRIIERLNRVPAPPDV

MTOR = assay: Kinobeads competition binding: MTOR; set-up: species or system human; settings: target MTOR
NUAK2 = molecular target: T5, NUAK2 (Homo sapiens, UniProt Q9H093); assay: Kinobeads competition binding: NUAK2; settings: target NUAK2
T5 construct: a mixture of lysates from five cancer cell lines; endogenous in cells
T5 sequence (Q9H093 1-628): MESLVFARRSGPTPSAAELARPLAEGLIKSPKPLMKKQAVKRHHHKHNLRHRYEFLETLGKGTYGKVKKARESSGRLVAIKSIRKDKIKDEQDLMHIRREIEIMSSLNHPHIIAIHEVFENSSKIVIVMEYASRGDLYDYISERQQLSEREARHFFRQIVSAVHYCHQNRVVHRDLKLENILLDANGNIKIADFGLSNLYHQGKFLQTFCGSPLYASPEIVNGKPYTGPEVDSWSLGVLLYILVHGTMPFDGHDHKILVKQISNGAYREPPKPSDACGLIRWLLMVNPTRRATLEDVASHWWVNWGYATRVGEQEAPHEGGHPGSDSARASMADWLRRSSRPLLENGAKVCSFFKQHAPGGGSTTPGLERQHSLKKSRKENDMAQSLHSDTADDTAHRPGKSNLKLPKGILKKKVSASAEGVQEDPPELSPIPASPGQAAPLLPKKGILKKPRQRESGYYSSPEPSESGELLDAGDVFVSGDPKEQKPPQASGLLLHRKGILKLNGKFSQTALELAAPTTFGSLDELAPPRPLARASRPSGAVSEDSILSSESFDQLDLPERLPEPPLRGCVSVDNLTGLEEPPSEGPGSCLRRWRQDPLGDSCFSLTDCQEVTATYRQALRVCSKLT
From the text: Supplement 41589_2023_1459_MOESM4_ESM.xlsx, sheet "CATDS matrix" | column: NUAK2

T1 sequence (P31749 whole entry): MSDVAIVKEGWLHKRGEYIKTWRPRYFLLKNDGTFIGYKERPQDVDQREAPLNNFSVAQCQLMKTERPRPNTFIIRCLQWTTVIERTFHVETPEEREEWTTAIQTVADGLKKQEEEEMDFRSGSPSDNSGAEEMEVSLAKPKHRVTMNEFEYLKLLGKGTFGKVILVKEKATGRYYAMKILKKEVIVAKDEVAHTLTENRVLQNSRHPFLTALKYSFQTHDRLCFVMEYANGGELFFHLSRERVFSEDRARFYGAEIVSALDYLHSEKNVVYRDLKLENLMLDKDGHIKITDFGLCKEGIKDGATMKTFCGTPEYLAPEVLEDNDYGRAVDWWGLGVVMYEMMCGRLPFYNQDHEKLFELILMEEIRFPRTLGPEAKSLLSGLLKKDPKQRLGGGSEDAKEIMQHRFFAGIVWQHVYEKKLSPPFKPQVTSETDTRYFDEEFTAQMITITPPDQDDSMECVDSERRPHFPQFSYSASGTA
T3 sequence (P29317 24-976): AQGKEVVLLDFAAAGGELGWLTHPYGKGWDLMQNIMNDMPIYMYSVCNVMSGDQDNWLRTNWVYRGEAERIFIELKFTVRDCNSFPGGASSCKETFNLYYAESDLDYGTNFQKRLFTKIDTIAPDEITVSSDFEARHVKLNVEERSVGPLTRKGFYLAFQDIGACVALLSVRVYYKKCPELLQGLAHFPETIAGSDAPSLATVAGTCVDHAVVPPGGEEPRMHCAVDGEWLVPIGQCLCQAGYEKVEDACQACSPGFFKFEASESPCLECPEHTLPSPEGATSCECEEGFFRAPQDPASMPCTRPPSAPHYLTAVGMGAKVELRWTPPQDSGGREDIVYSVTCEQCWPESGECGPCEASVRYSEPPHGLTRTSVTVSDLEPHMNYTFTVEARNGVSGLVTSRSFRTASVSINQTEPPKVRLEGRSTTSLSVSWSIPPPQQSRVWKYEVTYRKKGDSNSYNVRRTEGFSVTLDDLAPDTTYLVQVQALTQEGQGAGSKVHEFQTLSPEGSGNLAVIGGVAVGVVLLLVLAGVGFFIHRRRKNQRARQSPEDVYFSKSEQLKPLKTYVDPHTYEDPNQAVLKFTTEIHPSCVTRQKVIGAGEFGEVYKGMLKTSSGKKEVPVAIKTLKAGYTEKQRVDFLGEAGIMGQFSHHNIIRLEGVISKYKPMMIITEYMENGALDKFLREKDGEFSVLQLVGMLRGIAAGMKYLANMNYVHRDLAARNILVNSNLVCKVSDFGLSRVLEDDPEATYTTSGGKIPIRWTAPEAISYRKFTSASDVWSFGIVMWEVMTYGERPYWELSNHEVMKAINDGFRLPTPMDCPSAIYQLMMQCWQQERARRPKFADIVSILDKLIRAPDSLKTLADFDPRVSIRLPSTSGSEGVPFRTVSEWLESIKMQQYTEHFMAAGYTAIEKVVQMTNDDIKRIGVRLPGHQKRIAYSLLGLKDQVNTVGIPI
T2 sequence (Q00534 whole entry): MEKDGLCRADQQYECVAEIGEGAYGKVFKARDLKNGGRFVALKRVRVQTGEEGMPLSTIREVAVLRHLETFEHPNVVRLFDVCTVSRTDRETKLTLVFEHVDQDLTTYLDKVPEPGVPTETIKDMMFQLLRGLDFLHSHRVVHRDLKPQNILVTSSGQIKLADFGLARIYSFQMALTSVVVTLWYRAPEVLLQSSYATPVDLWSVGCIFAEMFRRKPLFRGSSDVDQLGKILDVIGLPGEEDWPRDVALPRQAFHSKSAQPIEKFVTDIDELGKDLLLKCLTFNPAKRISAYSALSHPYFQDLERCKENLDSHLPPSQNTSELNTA

Row | SMILES | CATDS (AKT1) | CATDS (CDC42BPA) | CATDS (CDK6) | CATDS (EPHA2) | CATDS (IGF1R) | CATDS (IKBKE) | CATDS (MTOR) | CATDS (NUAK2)
1 | Nc1ncnc2[nH]c(-c3ccccc3)nc12 [AH5015_KCGS] | 0 | 0 | 0 | 0 | 0 | 0 | 0 | 0
2 | CCN1CCN(Cc2ccc(Nc3ncc(F)c(-c4cc(F)c5nc(C)n(C(C)C)c5c4)n3)nc2)CC1 [Abemaciclib] | 0 | 0 |  | 0 | 0 | 0 | 0 | 0
3 | CN(C)C/C=C/C(=O)Nc1cc2c(Nc3ccc(F)c(Cl)c3)ncnc2cc1O[C@H]1CCOC1 [Afatinib] | 0 |  |  | 0 |  |  |  | 0
4 | CCc1cc2c(cc1N1CCC(N3CCOCC3)CC1)C(C)(C)c1[nH]c3cc(C#N)ccc3c1C2=O [Alectinib] | 0 | 0 | 0 | 0 | 0 | 0 | 0 | 0
5 | N#CC1(c2ccc(NC(=O)c3cccnc3NCc3ccncc3)cc2)CCCC1 [Apatinib] | 0 | 0 | 0 | 0 | 0 | 0 | 0 | 0
